Measurements reported in US8722670B2, “Selective NR2B antagonists” (Bristol-Myers Squibb Company, priority 2011, dated 2014).

Each molecule was assayed against T1, hNR2B (Homo sapiens, UniProt Q05586+Q13224) (assay: Electrophysiology NMDA receptor experiments: two electrode voltage-clamp in Xenopus laevis oocytes, hNR2B IC50). Settings: hNR2B activity class, 50 μM glutamate, 30 μM glycine, read-out: Activity.
T1 construct: expressed in transfected cells; host or cells: Xenopus laevis oocytes, cRNA-injected
T1 sequence (Q13224 27-1484, other chains not shown): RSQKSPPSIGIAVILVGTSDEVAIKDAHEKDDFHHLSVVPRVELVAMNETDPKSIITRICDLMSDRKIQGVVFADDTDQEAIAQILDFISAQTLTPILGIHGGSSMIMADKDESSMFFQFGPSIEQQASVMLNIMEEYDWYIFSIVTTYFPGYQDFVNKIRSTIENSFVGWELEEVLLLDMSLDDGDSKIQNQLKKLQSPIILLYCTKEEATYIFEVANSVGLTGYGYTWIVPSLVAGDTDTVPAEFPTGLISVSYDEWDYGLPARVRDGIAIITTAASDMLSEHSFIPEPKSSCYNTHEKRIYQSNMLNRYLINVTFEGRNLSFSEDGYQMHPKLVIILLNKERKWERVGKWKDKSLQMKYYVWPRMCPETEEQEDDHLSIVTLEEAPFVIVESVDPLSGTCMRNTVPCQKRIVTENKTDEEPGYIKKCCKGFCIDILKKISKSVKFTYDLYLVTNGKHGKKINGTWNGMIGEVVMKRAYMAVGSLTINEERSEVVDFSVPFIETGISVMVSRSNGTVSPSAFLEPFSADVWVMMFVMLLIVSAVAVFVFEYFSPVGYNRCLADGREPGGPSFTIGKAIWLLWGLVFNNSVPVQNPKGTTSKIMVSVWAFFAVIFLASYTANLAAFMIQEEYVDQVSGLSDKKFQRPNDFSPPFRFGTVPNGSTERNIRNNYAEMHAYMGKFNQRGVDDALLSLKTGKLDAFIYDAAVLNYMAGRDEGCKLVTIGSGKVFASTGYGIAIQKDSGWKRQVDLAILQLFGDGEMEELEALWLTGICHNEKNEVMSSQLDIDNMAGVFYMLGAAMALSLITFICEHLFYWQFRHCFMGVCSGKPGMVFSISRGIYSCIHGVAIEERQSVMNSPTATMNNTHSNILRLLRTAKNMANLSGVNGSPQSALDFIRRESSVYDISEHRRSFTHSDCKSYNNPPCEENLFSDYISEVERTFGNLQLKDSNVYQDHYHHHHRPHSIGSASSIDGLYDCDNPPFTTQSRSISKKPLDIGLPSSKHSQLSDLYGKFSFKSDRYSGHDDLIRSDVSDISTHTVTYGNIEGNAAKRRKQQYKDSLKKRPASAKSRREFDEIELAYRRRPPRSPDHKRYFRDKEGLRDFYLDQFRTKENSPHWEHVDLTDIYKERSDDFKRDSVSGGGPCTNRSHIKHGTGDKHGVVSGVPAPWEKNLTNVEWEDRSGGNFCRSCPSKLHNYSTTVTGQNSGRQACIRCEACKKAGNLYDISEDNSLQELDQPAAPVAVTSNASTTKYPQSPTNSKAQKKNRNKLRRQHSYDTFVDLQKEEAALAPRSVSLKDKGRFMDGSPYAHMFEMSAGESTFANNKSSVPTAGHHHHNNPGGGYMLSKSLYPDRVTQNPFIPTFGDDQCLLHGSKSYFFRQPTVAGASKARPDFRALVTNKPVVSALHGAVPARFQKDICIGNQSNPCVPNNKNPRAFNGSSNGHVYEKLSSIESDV
Format: cell-based

Compound	IC50
Oc1ccc(OCc2nnc(NCc3ccc(Cl)c(Cl)c3)o2)cc1 [Example 114]	< 200 nM
Oc1ccc(OCc2nnc(Nc3ccc(Cl)c(Cl)c3)o2)cc1 [Example 115]	< 200 nM
Oc1cccc(OCc2nnc(Nc3ccc(Cl)c(Cl)c3)o2)c1 [Example 116]	1000 to 10000 nM
Oc1ccc(OCc2nnc(NCc3ccc(Cl)c(Cl)c3)o2)nn1 [Example 117]	> 10000 nM
Oc1ccc(OCc2nnc(Nc3ccc(Cl)c(Cl)c3)o2)nn1 [Example 118]	1000 to 10000 nM
Oc1c(F)cc(OCc2nnc(Nc3ccc(Cl)c(Cl)c3)o2)cc1F [Example 119]	201 to 1000 nM
Clc1ccc(CNc2nnc(COc3ccc4c(c3)CCCN4)o2)cc1Cl [Example 120]	> 10000 nM
O=c1cnc2cc(OCc3nnc(Nc4ccc(Cl)c(Cl)c4)o3)ccc2[nH]1 [Example 123]	1000 to 10000 nM
O=c1cnc2cc(OCc3nnc(Nc4ccc(C(F)(F)F)cc4)o3)ccc2[nH]1 [Example 124]	1000 to 10000 nM
O=C1COc2cc(OCc3nnc(Nc4ccc(Cl)c(Cl)c4)o3)ccc2N1 [Example 125]	201 to 1000 nM
O=C1COc2cc(OCc3nnc(Nc4ccc(OC(F)(F)F)cc4)o3)ccc2N1 [Example 126]	201 to 1000 nM
O=C1COc2cc(OCc3nnc(NCc4ccc(Cl)c(Cl)c4)o3)ccc2N1 [Example 127]	201 to 1000 nM
O=C1CCc2cc(CCc3nnc(Nc4ccc(Cl)cc4)o3)ccc2N1 [Example 129]	< 200 nM
O=C1CCc2cc(CCc3nnc(Nc4ccc(C(F)(F)F)cc4)o3)ccc2N1 [Example 130]	< 200 nM
O=C1CCc2cc(CCc3nnc(Nc4ccc(Cl)c(Cl)c4)o3)ccc2N1 [Example 131]	< 200 nM
O=C1CCc2cc(CCc3nnc(NCc4ccc(Cl)c(Cl)c4)o3)ccc2N1 [Example 132]	< 200 nM
O=C1CCc2cc(CCc3nnc(Nc4ccc(OC(F)F)cc4)o3)ccc2N1 [Example 133]	< 200 nM
O=C1CCc2cc(CCc3nnc(Nc4ccc(OC(F)(F)F)cc4)o3)ccc2N1 [Example 134]	< 200 nM
O=C1CCc2cc(CCc3nnc(Nc4ccc(Cl)c(F)c4)o3)ccc2N1 [Example 135]	< 200 nM
O=c1ccc2cc(CCc3nnc(Nc4ccc(Cl)c(Cl)c4)o3)ccc2[nH]1 [Example 136]	< 200 nM
O=c1ccc2cc(CCc3nnc(Nc4ccc(OC(F)(F)F)c(Cl)c4)o3)ccc2[nH]1 [Example 137]	< 200 nM
O=c1ccc2cc(CCc3nnc(Nc4ccc(C(F)(F)F)cc4)o3)ccc2[nH]1 [Example 138]	< 200 nM
FC(F)(F)c1n[nH]c2ccc(CCc3nnc(Nc4ccc(Cl)c(Cl)c4)o3)cc12 [Example 143]	> 10000 nM
FC(F)(F)c1ccc(Nc2nnc(CCc3ccc4[nH]ncc4c3)o2)cc1 [Example 144]	< 200 nM
Clc1ccc(Nc2nnc(CCCc3ccc4[nH]ncc4c3)o2)cc1Cl [Example 145]	1000 to 10000 nM

Compound	IC50
Oc1cccc(Cc2nnc(Nc3ccc(Cl)c(Cl)c3)o2)c1 [Example 147]	1000 to 10000 nM
Oc1cccc(Cc2nnc(NCc3ccc(Cl)c(Cl)c3)o2)c1 [Example 148]	> 10000 nM
Oc1ccc(Cc2nnc(Nc3ccc(Cl)c(Cl)c3)o2)cc1 [Example 149]	1000 to 10000 nM
Oc1ccc(Cc2nnc(NCc3ccc(Cl)c(Cl)c3)o2)cc1 [Example 150]	1000 to 10000 nM
Oc1ccc(CCc2nnc(Nc3ccc(Cl)c(Cl)c3)o2)cc1 [Example 151]	< 200 nM
Oc1ccc(CCc2nnc(Nc3ccc(OC(F)(F)F)cc3)o2)cc1 [Example 153]	< 200 nM
O=c1ccc2cc(C3CC3c3nnc(Nc4ccc(OC(F)F)c(Cl)c4)o3)ccc2[nH]1 (stereo not drawn) [Example 155]	< 200 nM
O=c1ccc2cc(OCc3nc(Nc4ccc(C(F)(F)F)c(F)c4)no3)ccc2[nH]1 [Example 157]	> 10000 nM
O=c1ccc2cc(OCc3nc(Nc4ccc(F)cc4)no3)ccc2[nH]1 [Example 158]	> 10000 nM
O=c1ccc2cc(OCc3nc(Nc4cccc(Cl)c4)no3)ccc2[nH]1 [Example 161]	> 10000 nM
O=c1ccc2cc(OCc3nc(Nc4cc(Cl)cc(Cl)c4)no3)ccc2[nH]1 [Example 164]	1000 to 10000 nM
Cc1ccc(Nc2noc(COc3ccc4[nH]c(=O)ccc4c3)n2)cc1 [Example 165]	1000 to 10000 nM
COc1ccc(Nc2noc(COc3ccc4[nH]c(=O)ccc4c3)n2)cc1F [Example 166]	< 200 nM
O=c1ccc2cc(OCc3nc(Nc4ccc(Cl)c(Cl)c4)no3)ccc2[nH]1 [Example 178]	201 to 1000 nM
O=C1CCc2cc(OCc3nc(Nc4ccc(OC(F)(F)F)cc4)no3)ccc2N1 [Example 179]	201 to 1000 nM
O=C1CCc2cc(OCc3nc(Nc4ccc(C(F)(F)F)cc4)no3)ccc2N1 [Example 180]	1000 to 10000 nM
O=C1CCc2cc(OCc3nc(Nc4ccc(Cl)cc4)no3)ccc2N1 [Example 182]	1000 to 10000 nM
O=c1ccc2cc(OCc3nc(Nc4ccc(Cl)cc4)no3)ccc2[nH]1 [Example 183]	1000 to 10000 nM
Oc1ccc(OCc2nc(Nc3ccc(Cl)c(Cl)c3)no2)cc1 [Example 184]	1000 to 10000 nM
Oc1ccc(OCc2nc(Nc3ccc(C(F)(F)F)cc3)no2)cc1 [Example 185]	1000 to 10000 nM
O=C1CCc2cc(OCc3nc(Nc4ccc(OC(F)F)cc4)no3)ccc2N1 [Example 186]	201 to 1000 nM
Clc1ccc(Nc2noc(COc3ccc4[nH]ncc4c3)n2)cc1Cl [Example 187]	> 10000 nM
FC(F)(F)c1ccc(Nc2noc(COc3ccc4[nH]ncc4c3)n2)cc1 [Example 188]	> 10000 nM
Clc1ccc(CNc2noc(COc3ccc4[nH]ncc4c3)n2)cc1 [Example 189]	1000 to 10000 nM

Continued, values first:

IC50	Compound
< 200 nM	O=c1ccc2cc(OCc3nc(Nc4ccc(OC(F)F)c(Cl)c4)no3)ccc2[nH]1 [Example 191]
1000 to 10000 nM	O=c1ccc2cc(OCc3nc(Nc4ccc(F)c(Cl)c4)no3)ccc2[nH]1 [Example 192]
> 10000 nM	FC(F)(F)Oc1ccc(Nc2noc(CCc3ccc4[nH]nc(C(F)(F)F)c4c3)n2)cc1 [Example 195]
> 10000 nM	FC(F)Oc1ccc(Nc2noc(CCc3ccc4[nH]nc(C(F)(F)F)c4c3)n2)cc1Cl [Example 197]
1000 to 10000 nM	Clc1ccc(Nc2noc(CCc3ccc4[nH]ncc4c3)n2)cc1Cl [Example 198]
> 10000 nM	O=C1CCc2cc(CCc3nc(Nc4ccc(Cl)c(Cl)c4)no3)ccc2N1 [Example 199]
> 10000 nM	Clc1ccc(Nc2noc(CCCc3ccc4[nH]ncc4c3)n2)cc1Cl [Example 202]
> 10000 nM	FC(F)(F)c1ccc(Nc2noc(CCCc3ccc4[nH]ncc4c3)n2)cc1 [Example 203]
201 to 1000 nM	O=c1ccc2cc(CCc3nc(Nc4ccc(Cl)c(Cl)c4)no3)ccc2[nH]1 [Example 204]
> 10000 nM	FC(F)Oc1ccc(Nc2noc(CCc3ccc4[nH]ncc4c3)n2)cc1Cl [Example 205]
1000 to 10000 nM	FC(F)Oc1ccc(Nc2noc(CCCc3ccc4[nH]ncc4c3)n2)cc1Cl [Example 206]
< 200 nM	FC(F)Oc1ccc(Nc2noc(CCNc3ncnc4[nH]ncc34)n2)cc1Cl [Example 207]
< 200 nM	Fc1cc(Nc2noc(CCc3ccc4[nH]ncc4c3)n2)ccc1OC(F)F [Example 210]
< 200 nM	CCc1ccc(Nc2noc(CCc3ccc4[nH]ncc4c3)n2)cc1 [Example 211]
201 to 1000 nM	CCc1ccc(Nc2noc(CCc3ccc4[nH]ncc4c3)n2)cc1Cl [Example 212]
1000 to 10000 nM	COc1ccc(Nc2noc(CCc3ccc4[nH]ncc4c3)n2)cc1C [Example 213]
201 to 1000 nM	Cc1cc(Nc2noc(CCc3ccc4[nH]ncc4c3)n2)ccc1OC(F)F [Example 214]
< 200 nM	CCc1ccc(Nc2noc(CCc3ccc4[nH]ncc4c3)n2)cc1F [Example 215]
201 to 1000 nM	Fc1ccc(Nc2noc(CCc3ccc4[nH]ncc4c3)n2)cc1C(F)F [Example 216]
< 200 nM	Oc1ccc(CCc2nc(Nc3ccc(OC(F)F)c(F)c3)no2)cc1 [Example 219]
201 to 1000 nM	Oc1ccc(CCc2nc(Nc3ccc(C(F)(F)F)cc3)no2)cc1 [Example 223]

Same assay, conditions: voltage clamp -40 mV, 50 μM glutamate, 30 μM glycine, read-out: hNR2B IC50

Compound	IC50
Oc1ccc(CCc2nnc(NCc3ccc(Cl)c(Cl)c3)o2)cc1 [Example 128, 4-(2-(5-(3,4-dichlorobenzylamino)-1,3,4-oxadiazol-2-yl)ethyl)phenol]	61 nM
FC(F)Oc1ccc(Nc2nnc(CCc3ccc4[nH]nc(C(F)(F)F)c4c3)o2)cc1Cl [Example 142]	4680 nM
Fc1cc(Nc2nnc(CCCc3ccc4[nH]ncc4c3)o2)ccc1Cl [Example 146]	230 nM
Oc1ccc(CCc2nnc(Nc3ccc(C(F)(F)F)cc3)o2)cc1 [Example 152]	48 nM
O=c1ccc2cc(C3CC3c3nnc(Nc4ccc(C(F)(F)F)cc4)o3)ccc2[nH]1 (stereo not drawn) [Example 154, 6-(2-(5-((4-(trifluoromethyl)phenyl)amino)-1,3,4-oxadiazol-2-yl)cyclopropyl)quinolin-2(1H)-one]	9.5 nM
O=C1CCc2cc(OCc3nc(Nc4ccc(Cl)c(Cl)c4)no3)ccc2N1 [Example 156, 6-((3-(3,4-dichlorophenylamino)-1,2,4-oxadiazol-5-yl)methoxy)-3,4-dihydroquinolin-2(1H)-one]	390 nM
COc1ccc(Nc2noc(COc3ccc4[nH]c(=O)ccc4c3)n2)cc1Cl [Example 167]	300 nM
O=c1ccc2cc(OCc3nc(Nc4ccc(C(F)(F)F)cc4)no3)ccc2[nH]1 [Example 181]	145 nM
O=c1ccc2cc(OCc3nc(Nc4ccc(OC(F)F)cc4)no3)ccc2[nH]1 [Example 190]	168 nM

Continued, values first:

IC50	Compound
> 10000 nM	O=C1CCc2cc(CCc3nc(Nc4ccc(Cl)c(Cl)c4)no3)ccc2N1 [Example 194, 6-(2-(3-(3,4-dichlorophenylamino)-1,2,4-oxadiazol-5-yl)ethyl)-3,4-dihydroquinolin-2(1H)-one]
320 nM	Oc1ccc(CCc2nc(NCc3ccc(Cl)cc3)no2)cc1 [Example 200]
470 nM	FC(F)Oc1ccc(Nc2noc(CCc3ccc4[nH]ncc4c3)n2)cc1 [Example 201]
11 nM	O=c1ccc2cc(CCc3nc(Nc4ccc(OC(F)F)c(Cl)c4)no3)ccc2[nH]1 [Example 208]
19 nM	Cc1ccc(Nc2noc(CCc3ccc4[nH]ncc4c3)n2)cc1F [Example 209]
